Test results from patent publication US5840684A, “Glycopeptide antibiotic derivatives” (Eli Lilly and Company, priority 1995, dated 1998).
≈ marks a conversion by molar mass, not a printed value.

Key:
[1] = test system: vancomycin-resistant enterococci; experiment: broth micro-dilution, mean geometric MIC; assay type: cell-based, Enterococcus faecium and Enterococcus faecalis; details: enterococci, 24-hour incubation
[2] = test system: vancomycin-susceptible enterococci; experiment: broth micro-dilution, mean geometric MIC; assay type: cell-based, Enterococcus faecium and Enterococcus faecalis; details: enterococci, 24-hour incubation
[3] = test system: Staphylococcus aureus SA1199B; assay type: cell-based
Experimental: (§1) The MIC's were determined using a standard broth micro-dilution assay.

[4] = test system: Staphylococcus aureus S13E; assay type: cell-based
Experimental: as §1

[5] = test system: Staphylococcus epidermidis 270; experiment: broth micro-dilution MIC; assay type: cell-based
Experimental: (§2) The formula I compounds have in vitro and in vivo activity against Gram-positive pathogenic bacteria. The MIC's were determined using a standard broth micro-dilution assay.

[6] = test system: Staphylococcus haemolyticus 415; experiment: broth micro-dilution MIC; assay type: cell-based
Experimental: as §2

[7] = test system: Streptococcus pneumoniae P1; experiment: broth micro-dilution MIC; assay type: cell-based
Experimental: as §2

[8] = test system: Staphylococcus haemolyticus 105; experiment: broth micro-dilution MIC; assay type: cell-based
Experimental: as §2

[9] = test system: Enterococcus gallinarum 245; experiment: broth micro-dilution MIC; assay type: cell-based; details: Enterococcus gallinarum 245
Experimental: as §2

[10] = test system: Entercoccus faecium 180; experiment: broth micro-dilution MIC; assay type: cell-based; details: Entercoccus faecium 180
Experimental: as §2

[11] = test system: Staphylococcus aureus 446; experiment: broth micro-dilution MIC; assay type: cell-based
Experimental: as §1

[12] = test system: Entercoccus faecium 276; experiment: broth micro-dilution MIC; assay type: cell-based
Experimental: as §1

[13] = test system: Entercoccus faecium 180-1; experiment: broth micro-dilution MIC; assay type: cell-based
Experimental: as §1

[14] = test system: Staphylococcus aureus 489; experiment: broth micro-dilution MIC; assay type: cell-based
Experimental: as §1

[15] = test system: Staphylococcus aureus X400; experiment: broth micro-dilution MIC; assay type: cell-based
Experimental: as §1

[16] = test system: Streptococcus pyogenes C203; experiment: broth micro-dilution MIC; assay type: cell-based
Experimental: as §1

[17] = test system: Staphylococcus aureus X778; experiment: broth micro-dilution MIC; assay type: cell-based
Experimental: as §1

[18] = test system: Staphylococcus aureus 447; experiment: broth micro-dilution MIC; assay type: cell-based
Experimental: as §1

[19] = test system: Entercoccus faecium 2041; experiment: broth micro-dilution MIC; assay type: cell-based; details: Entercoccus faecium 2041
Experimental: as §2

[20] = test system: Staphylococcus aureus SA1199A; experiment: broth micro-dilution MIC; assay type: cell-based
Experimental: as §1

[21] = test system: Staphylococcus aureus SA1199; experiment: broth micro-dilution MIC; assay type: cell-based
Experimental: as §1

Compound	mean geometric MIC, Vancomycin Resistant Strains [1] [µg/mL]	mean geometric MIC, Vancomycin Sensitive Strains [2] [µg/mL]	MIC [3] [µg/mL]	MIC [4] [µg/mL]	MIC [5] [µg/mL]	MIC [6] [µg/mL]	MIC [7] [µg/mL]	MIC [8] [µg/mL]	MIC [9] [µg/mL]	MIC [10] [µg/mL]	MIC [11] [µg/mL]	MIC [12] [µg/mL]	MIC [13] [µg/mL]	MIC [14] [µg/mL]	MIC [15] [µg/mL]	MIC [16] [µg/mL]	MIC [17] [µg/mL]	MIC [18] [µg/mL]	MIC [19] [µg/mL]	MIC [20] [µg/mL]	further results
CNC(CC(C)C)C(=O)NC1C(=O)NC(CC(N)=O)C(=O)NC2C(=O)NC3C(=O)NC(C(=O)NC(C(=O)O)c4cc(O)cc(O)c4-c4cc3ccc4O)C(OC3CC(C)(N)C(O)C(C)O3)c3ccc(c(Cl)c3)Oc3cc2cc(c3OC2OC(CO)C(O)C(O)C2OC2CC(C)(NCc3ccc(Cl)c(C(=O)c4ccccc4)c3Cl)C(O)C(C)O2)Oc2ccc(cc2Cl)C1O (stereo not drawn) [Compound 133]	4.0	0.13	2 (≈ 1.08 µM)	1 (≈ 0.539 µM)	1 (≈ 0.539 µM)	2 (≈ 1.08 µM)	≤ 0.06	2 (≈ 1.08 µM)	2 (≈ 1.08 µM)	1 (≈ 0.539 µM)	2 (≈ 1.08 µM)	1 (≈ 0.539 µM)	≤ 0.06	1 (≈ 0.539 µM)	0.5 (≈ 0.269 µM)	≤ 0.06	2 (≈ 1.08 µM)	1 (≈ 0.539 µM)			
CNC(CC(C)C)C(=O)NC1C(=O)NC(CC(N)=O)C(=O)NC2C(=O)NC3C(=O)NC(C(=O)NC(C(=O)O)c4cc(O)cc(O)c4-c4cc3ccc4O)C(OC3CC(C)(N)C(O)C(C)O3)c3ccc(c(Cl)c3)Oc3cc2cc(c3OC2OC(CO)C(O)C(O)C2OC2CC(C)(NCc3ccc(Nc4ccccc4)cc3)C(O)C(C)O2)Oc2ccc(cc2Cl)C1O (stereo not drawn) [Compound 160]	9.5	0.22	≤ 0.06	1 (≈ 0.564 µM)	1 (≈ 0.564 µM)	8 (≈ 4.51 µM)	≤ 0.06	8 (≈ 4.51 µM)	8 (≈ 4.51 µM)	0.5 (≈ 0.282 µM)	2 (≈ 1.13 µM)	2 (≈ 1.13 µM)	≤ 0.06	0.21 (≈ 0.118 µM)	4 (≈ 2.26 µM)	≤ 0.06	4 (≈ 2.26 µM)	1 (≈ 0.564 µM)	≤ 0.06		
CNC(CC(C)C)C(=O)NC1C(=O)NC(CC(N)=O)C(=O)NC2C(=O)NC3C(=O)NC(C(=O)NC(C(=O)O)c4cc(O)cc(O)c4-c4cc3ccc4O)C(OC3CC(C)(N)C(O)C(C)O3)c3ccc(c(Cl)c3)Oc3cc2cc(c3OC2OC(CO)C(O)C(O)C2OC2CC(C)(NCCc3ccc(Oc4ccccc4)cc3)C(O)C(C)O2)Oc2ccc(cc2Cl)C1O (stereo not drawn) [Compound 63]	54	0.66	0.5 (≈ 0.28 µM)		1 (≈ 0.559 µM)	8 (≈ 4.47 µM)	≤ 0.06	4 (≈ 2.24 µM)	8 (≈ 4.47 µM)		0.5 (≈ 0.28 µM)	0.5 (≈ 0.28 µM)	≤ 0.06	8 (≈ 4.47 µM)	≤ 0.06	≤ 0.06		1 (≈ 0.559 µM)			
CCOc1ccc2ccccc2c1CNC1(C)CC(OC2C(Oc3c4cc5cc3Oc3ccc(cc3Cl)C(OC3CC(C)(N)C(O)C(C)O3)C3NC(=O)C(NC(=O)C5NC(=O)C(CC(N)=O)NC(=O)C(NC(=O)C(CC(C)C)NC)C(O)c5ccc(c(Cl)c5)O4)c4ccc(O)c(c4)-c4c(O)cc(O)cc4C(C(=O)O)NC3=O)OC(CO)C(O)C2O)OC(C)C1O (stereo not drawn) [Compound 60]	19	3.0	0.5 (≈ 0.281 µM)		2 (≈ 1.13 µM)	16 (≈ 9.01 µM)	≤ 0.06		16 (≈ 9.01 µM)	4 (≈ 2.25 µM)	1 (≈ 0.563 µM)	0.5 (≈ 0.281 µM)	≤ 0.06	0.5 (≈ 0.281 µM)	0.5 (≈ 0.281 µM)			2 (≈ 1.13 µM)		≤ 0.06	
CNC(CC(C)C)C(=O)NC1C(=O)NC(CC(N)=O)C(=O)NC2C(=O)NC3C(=O)NC(C(=O)NC(C(=O)O)c4cc(O)cc(O)c4-c4cc3ccc4O)C(OC3CC(C)(N)C(O)C(C)O3)c3ccc(c(Cl)c3)Oc3cc2cc(c3OC2OC(CO)C(O)C(O)C2OC2CC(C)(NCC3=CCC(C(C)C)CC3)C(O)C(C)O2)Oc2ccc(cc2Cl)C1O (stereo not drawn) [Compound 171]	9.5	0.22		≤ 0.06	1 (≈ 0.578 µM)	8 (≈ 4.63 µM)	≤ 0.06	4 (≈ 2.31 µM)	8 (≈ 4.63 µM)	1 (≈ 0.578 µM)	1 (≈ 0.578 µM)	0.125 (≈ 0.0723 µM)	≤ 0.06	0.5 (≈ 0.289 µM)	≤ 0.06	≤ 0.06	≤ 0.06	1 (≈ 0.578 µM)	≤ 0.06	≤ 0.06	
CNC(CC(C)C)C(=O)NC1C(=O)NC(CC(N)=O)C(=O)NC2C(=O)NC3C(=O)NC(C(=O)NC(C(=O)O)c4cc(O)cc(O)c4-c4cc3ccc4O)C(OC3CC(C)(N)C(O)C(C)O3)c3ccc(c(Cl)c3)Oc3cc2cc(c3OC2OC(CO)C(O)C(O)C2OC2CC(C)(NCc3cccc(OC(=O)c4ccccc4)c3)C(O)C(C)O2)Oc2ccc(cc2Cl)C1O (stereo not drawn) [Compound 162]	4.8	0.12	≤ 0.06	≤ 0.06	≤ 0.06	2 (≈ 1.11 µM)	≤ 0.06		2 (≈ 1.11 µM)	≤ 0.06	0.5 (≈ 0.277 µM)	≤ 0.06	≤ 0.06		≤ 0.06	≤ 0.06	≤ 0.06	≤ 0.06	≤ 0.06	≤ 0.06	MIC [21]: ≤ 0.06 µg/mL
CNC(CC(C)C)C(=O)NC1C(=O)NC(CC(N)=O)C(=O)NC2C(=O)NC3C(=O)NC(C(=O)NC(C(=O)O)c4cc(O)cc(O)c4-c4cc3ccc4O)C(OC3CC(C)(N)C(O)C(C)O3)c3ccc(c(Cl)c3)Oc3cc2cc(c3OC2OC(CO)C(O)C(O)C2OC2CC(C)(NCc3cc(C)cs3)C(O)C(C)O2)Oc2ccc(cc2Cl)C1O (stereo not drawn) [Compound 66]	16	0.76		≤ 0.06	1 (≈ 0.587 µM)	8 (≈ 4.7 µM)	≤ 0.06		8 (≈ 4.7 µM)	2 (≈ 1.17 µM)		≤ 0.06	≤ 0.06	1 (≈ 0.587 µM)			≤ 0.06	1 (≈ 0.587 µM)	≤ 0.06	≤ 0.06	
